How the values were obtained:
[1] = tested on: vincristine-induced pain model in rats; experiment: Antiallodynic activity on vincristine-induced pain model, von Frey; format: in vivo, Sprague-Dawley rats; conditions: 0.5 hr, paw withdrawal threshold relative to sham
Method: Male, Sprague-Dawley rats (300-320 g, Nara Bio, Korea) were habituated for 1 week before surgery and allowed free access to food and water throughout the experimentation. Room temperature and humidity were maintained at 24±2° C. and 50±10%, respectively.
Vincristine was established by the procedure of Natsuko et al. (2001) with minor modifications. Vincristine was intravenously infused continuously for 14 days using a mini-osmotic pump as follows. Vincristine sulfate solution (Hospira, Australia) was diluted with 0.9% saline to 30 ug/kg, final dose. The pumps (Alzet Model 2002, USA) were filled with the vincristine solution and primed by incubation at 37° C. for 4 h before the infusion. Briefly, animal under gaseous anesthesia with isoflurane a 4:4 flow ratio of NO2. […]
(§1) Tactile sensitivity (Mechanical allodynia) was evaluated using von Frey monofilaments before and after treatment, and animals were used withdrawal threshold value was less than 4 g. […] The tactile sensitivity for ipsilateral hind paw was measured using the up-and-down method (Dixon, 1980) with seven von Frey monofilaments (0.4, 1, 2, 4, 6, 8, and 15 g) to 3 trials. […] The 50% paw withdrawal threshold for each paw was calculated using the following formula: [Xth] log=[vFr] log+ky where [vFr] is the force of the last von Frey used, k=0.2249 which is the average interval (in log units) between the von Frey monofilaments, and y is a value that depends upon the pattern of withdrawal responses (Dixon, 1980).
Antiallodynic effect of compound of Example 1 was evaluated at the dose of 1, 5 and 10 mg/kg (n=6), intraperitoneally administrated in a volume of 5 ul/g, bw in a vehicle of 30% (v/v) PEG. […]
The relative values compared to the sham (% control) were calculated and shown in Table 6 and FIG. 6, which show an antiallodynic effect of Compound 1 on vincristine-induced pain model in rats.

[2] = tested on: SNL model in rats; experiment: Antiallodynic activity on Chung model (SNL, spinal nerve ligation), von Frey; format: in vivo, Sprague-Dawley rats; conditions: Rattus norvegicus, po, 1 h
Method: Male Sprague-Dawley rats (200-220 g, Orient Bio, Korea) were habituated for 1 week before the experiment and allowed free access to food and water throughout the experimentation. Room temperature and humidity were maintained at 24±2° C. and 50±10%, respectively. Neuropathic surgery (SNL, Spinal nerve ligation) model was done as described in Kim and Chung (1992). Briefly, animal under gaseous anesthesia with isoflurane a 4:4 flow ratio of NO2. The left lumber spinal nerve L5 and L6 were isolated and tightly ligated with 4˜0 silk thread. The wound was treated with a gentamicin antibiotics solution (4 mg/kg, 4 ul/g, bw), and the wound muscle was closed with cat cut chrome 4/0 thread and skin was closed dafilon 4/0 tread. Sham controls were prepared in the same manner as the spinal nerves were exposed, but no ligated L5 and L6 nerves. But, vehicle controls were identical to SNL model, except for administration of vehicles.
as §1, with “treatment” for “treatment,”
All animals were fasted 18 h before the administration of the compounds. Antiallodynic effect of compounds of Examples 1, 63 and 65 were evaluated at the dose of 5, 10 and 30 mg/kg (n=5˜6), orally administrated in a volume of 5 ul/g, bw in a vehicle of 30% (v/v) PEG 400 (Examples 1 and 63) or 20% (v/v) Tween 80 (Example 65). […]

[3] = tested on: ICR mice; experiment: Hot-plate test; format: in vivo; conditions: withdrawal latency relative to vehicle control, 150 mg/kg po, hot plate 55±1° C.
Method: To examine the pain relief effect of the phenyl carbamate compounds, a hot-plate test was conducted in general pain animal model referring to Current Protocols in Neuroscience; Behavioral Neuroscience Unit 8.9.
ICR mice (male, 30-35 g; Orient Bio, Korea) were habituated before test in test room for 1 hour Animals were fasted 2 hr before administration of compounds. Each of Compound 1, 2, 3, 4, 5, 63, 65, and 67 was orally administered at the dose of 150 mg/kg, 10 ul/g, bw (n=7˜10/group). All compounds were dissolved in a vehicle of 30% (v/v) PEG 400 or 20% (v/v) Tween 80. The control group was treated the vehicle without compounds.
0.5 hr after the administration of compounds, the mice were put on a hot plate pre-heated to 55±1° C. (Hu, X. et al, 2008), and then, measured as the withdrawal latency (cut-off time: 30 sec) time until the point when each mouse was taking off a paw from the plate, shaking, licking a paw or hind leg, or jumping from the plate.

C[C@H](OC(N)=O)[C@@H](O)c1ccccc1Cl [Example 1, 1-(2-chlorophenyl)-(S)-1-hydroxypropyl-(S)-2-carbamate]
% Control (vincristine-induced pain model) ([1]; dose 1 mg/kg intraperitoneally): 20.7%
% Control (vincristine-induced pain model) ([1]; dose 5 mg/kg intraperitoneally): 63.1%
% Control (vincristine-induced pain model) ([1]; dose 10 mg/kg intraperitoneally): 71.7%
ED50 [2]: 11.1 mg/kg
Hot-plate test (150 mg/kg, 0.5 h, po) % Control [3]: 135.7%

Source: patent US9162975B2, “Phenyl carbamate compounds for use in alleviating or treating pain” (Bio-Pharm Solutions Co., Ltd., priority 2011, dated 2015)
